Source: PubChem BioAssay AID1963875 (Molecular Pharmacology Branch, DTP, NCI, 2024)

System: KRAS-mutant PDC complex spheroid viability
Experiment: Anticancer human tumor 186277-243-T-J2-PDC patient-derived colon adenocarcinoma cell line growth inhibition [KRAS2]
Details: for IC50: curve of first compound; for viability, T/C: stronger effect = lower value
Excerpt: Multicellular complex tumor spheroid response to RAS pathway inhibitors in combination with a targeted agents in patient-derived cell lines with oncogenic KRAS variants from multiple cancer types
A high-throughput screen of multi-cell type tumor spheroids was designed to identify active combinations of targeted small molecules and KRAS pathway inhibitors. Complex spheroids include a stromal component modeled by human endothelial cells (HUVEC) and fibroblasts modeled by human mesenchymal stem cells (MSCs). The concentration ranges selected for each drug and investigational agent were based upon clinically achievable concentrations if the clinical Cmax of the agent was known.
Compounds. The drugs and investigational agents: BI-3406 (NSC825286), BAY-293 (NSC824723), batoprotafib (TNO155; NSC825523), sotorasib (AMG 510; NSC818433), MRTX1257 (NSC819558), elimusertib (BAY 1895344; NSC800525), molibresib (GSK525762; NSC774829), temuterkib (LY3214996; NSC803410), venetoclax (NSC766270), alisertib (NSC759677), olaparib (NSC753686), talazoparib (NSC767125), erdafitinib (NSC781556), ipatasertib (NSC767898), cabozantinib (NSC761068), nintedanib (NSC756659), abemaciclib (NSC768073), docetaxel (NSC628503), trametinib (NSC758246), and sapanisertib (NSC764658) were obtained from the National Cancer Institute (NCI) Developmental Therapeutics Program Chemical Repository. The FDA-approved anticancer drug set is available from the Developmental Therapeutics Program. […] The stock solutions were prepared in dimethyl sulfoxide (DMSO, Sigma-Aldrich, St. Louis, MO, cat. D2650) at 800-fold the tested concentration and stored at -70 degrees C prior to their use. All drugs and investigational agents were tested over a range starting from a high concentration at or near the clinical Cmax and decreasing in half-log increments. If the clinical Cmax for an agent had not been determined, the highest concentration tested was 10 microM.
Cell Culture. All cells were maintained in an incubator at 37 degrees C and 5% CO2 with 95% humidity. The PDC lines were cultured according to standard operating procedures established by the NCI PDMR (https://pdmr.cancer.gov/sops/default.htm). Briefly, all PDCs were thawed and cultured in Matrigel-coated flasks prepared with a working solution of 1X Ham's F-12 nutrient mix, without supplementation (Invitrogen, Waltham, MA, cat. 11765054), 100 U/mL penicillin-streptomycin (Invitrogen, cat. 15140122), and 2.5% Matrigel (Corning Inc., Corning, NY, cat. 354248) for the first three passages. All PDCs were cultured in complete DMEM/F-12 media containing advanced DMEM/F-12 (Invitrogen, cat. 12634028), 4.9% defined fetal bovine serum, heat inactivated (HyClone Laboratories Inc., Logan, UT, cat. SH30070.03HI), 389 ng/mL hydrocortisone (Sigma-Aldrich, cat. H4001), 9.7 ng/mL human EGF recombinant protein (Invitrogen, cat. PHG0313), 23.4 microg/mL adenine (Sigma-Aldrich, cat. A2786), 97.3 U/mL penicillin-streptomycin (Invitrogen, cat. 15140122), 1.9 mM L-glutamine (Invitrogen, cat. 25030081), and 9.7 microM Y-27632 dihydrochloride (Tocris Bioscience, Bristol, United Kingdom, cat. 1254). The PDCs were cultured in complete DMEM/F12 media without 9.7 microM Y-27632 dihydrochloride for at least two passages prior to the screen. The established cell line HOP-62 was cultured in RPMI 1640 medium, HEPES (Invitrogen, cat. 22400105) with 10% defined fetal bovine serum (HyClone Laboratories Inc., cat. SH30070.03) and 2 mM L-glutamine (Invitrogen, cat. 25030081). The pooled donor HUVEC were cultured in endothelial cell growth medium 2 (PromoCell, Heidelberg, Germany, cat. C-22011) and the hMSC were cultured in mesenchymal stem cell growth medium 2 (PromoCell, cat. C-28009). For all experiments, HUVEC and hMSC were used at passages </=5, while the malignant cell lines were used at passages </=15. […]

[1] = second compound 0.1 µM, first compound 0.0316 µM
[2] = second compound 0.1 µM, first compound 0.1 µM
[3] = second compound 0.1 µM, first compound 0.316 µM
[4] = second compound 0.1 µM, first compound 1 µM
[5] = second compound 0.1 µM, first compound 3.16 µM
[6] = second compound 0.1 µM, first compound 10 µM
[7] = second compound 0.316 µM, first compound 0.0316 µM
[8] = second compound 0.316 µM, first compound 0.1 µM
[9] = second compound 0.316 µM, first compound 0.316 µM
[10] = second compound 0.316 µM, first compound 1 µM
[11] = second compound 0.316 µM, first compound 3.16 µM
[12] = second compound 0.316 µM, first compound 10 µM
[13] = second compound 1 µM, first compound 0.0316 µM
[14] = second compound 1 µM, first compound 0.1 µM
[15] = second compound 1 µM, first compound 0.316 µM
[16] = second compound 1 µM, first compound 1 µM
[17] = second compound 1 µM, first compound 3.16 µM
[18] = second compound 1 µM, first compound 10 µM
[19] = second compound 3.16 µM, first compound 0.0316 µM
[20] = second compound 3.16 µM, first compound 0.1 µM
[21] = second compound 3.16 µM, first compound 0.316 µM
[22] = second compound 3.16 µM, first compound 1 µM
[23] = second compound 3.16 µM, first compound 3.16 µM
[24] = second compound 3.16 µM, first compound 10 µM
[25] = second compound 10 µM, first compound 0.0316 µM
[26] = second compound 10 µM, first compound 0.1 µM
[27] = second compound 10 µM, first compound 0.316 µM
[28] = second compound 10 µM, first compound 1 µM
[29] = second compound 10 µM, first compound 3.16 µM
[30] = second compound 10 µM, first compound 10 µM
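Throughout, for viability, T/C: viability read after seven days of compound exposure; 100% = DMSO vehicle-treated spheroids so lower means less viable.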

Structure (SMILES)	IC50 (second compound 0.1 µM) [µM]	IC50 (second compound 0.316 µM) [µM]	IC50 (second compound 1 µM) [µM]	IC50 (second compound 3.16 µM) [µM]	IC50 (second compound 10 µM) [µM]	viability, T/C [1] [%]	viability, T/C [2] [%]	viability, T/C [3] [%]	viability, T/C [4] [%]	viability, T/C [5] [%]	viability, T/C [6] [%]	viability, T/C [7] [%]	viability, T/C [8] [%]	viability, T/C [9] [%]	viability, T/C [10] [%]	viability, T/C [11] [%]	viability, T/C [12] [%]	viability, T/C [13] [%]	viability, T/C [14] [%]	viability, T/C [15] [%]	further results
CC(C)NCC(C(=O)N1CCN(c2ncnc3c2C(C)CC3O)CC1)c1ccc(Cl)cc1 (stereo not given) + C=CC(=O)N1CCN(c2nc(=O)n(-c3c(C)ccnc3C(C)C)c3nc(-c4c(O)cccc4F)c(F)cc23)C(C)C1	0.615	0.65	0.636	0.271	0.0513	102	99.5	63.7	37.5	27.9	13.4	106	93.6	63.2	41.1	23.9	11.8	109	103	66.5	viability, T/C [16]: 36.7%; viability, T/C [17]: 26.3%; viability, T/C [18]: 10.6%; viability, T/C [19]: 100%; viability, T/C [20]: 85.1%; viability, T/C [21]: 40.9%; viability, T/C [22]: 25.7%; viability, T/C [23]: 14.3%; viability, T/C [24]: 8.27%; viability, T/C [25]: 70.3%; viability, T/C [26]: 20.1%; viability, T/C [27]: 15.9%; viability, T/C [28]: 8.02%; viability, T/C [29]: 6.56%; viability, T/C [30]: 2.87%
CC1(C)CCC(CN2CCN(c3ccc(C(=O)NS(=O)(=O)c4ccc(NCC5CCOCC5)c([N+](=O)[O-])c4)c(Oc4cnc5[nH]ccc5c4)c3)CC2)=C(c2ccc(Cl)cc2)C1 + C=CC(=O)N1CCN(c2nc(=O)n(-c3c(C)ccnc3C(C)C)c3nc(-c4c(O)cccc4F)c(F)cc23)C(C)C1	1.89	2.1	1.95	1.69	0.373	107	89.6	90.8	108	10.6	0.45	97.7	104	102	98.5	23.3	1.48	97.8	97.9	94.1	viability, T/C [16]: 106%; viability, T/C [17]: 14.3%; viability, T/C [18]: 0.49%; viability, T/C [19]: 99.9%; viability, T/C [20]: 110%; viability, T/C [21]: 96.7%; viability, T/C [22]: 85%; viability, T/C [23]: 8.01%; viability, T/C [24]: 0.76%; viability, T/C [25]: 61.1%; viability, T/C [26]: 69.4%; viability, T/C [27]: 48.6%; viability, T/C [28]: 32%; viability, T/C [29]: 1.91%; viability, T/C [30]: 0.62%
